From patent US20200325178A1, “PEPTIDE NUCLEIC ACID MOLECULES FOR TREATMENT OF GRAM POSITIVE BACTERIAL INFECTION” (priority 2017, published 2020)

Key:
MRSA = experiment: In vitro assay of emergence of resistance, MRSA, 8 days; format: cell-based, S. aureus; conditions: 6.25 μg (twice MBC) in one ml Mueller Hinton broth, 37° C., through Day 8
Description: (§1) To determine the development of resistance in MRSA and MSSA strains against Compound I-HCl and Compound IV-HCl, an in vitro assay was performed. Twice the amount of MBC of Compound I-HCl (6.25 μg) and Compound IV-HCl (6.25 μg) were mixed with ˜5.0 log 10 CFUs in one ml of Mueller Hinton broth and incubated for 8 days at 37° C. Eight tubes of culture were used for each drug and bacterial strains. At 24 hours of interval, culture tubes were centrifuged and spent media were replaced with fresh media in presence of Compound I-HCl and Compound IV-HCl and further incubated to observe the growth of S. aureus strains. At 24 hours interval, one set of culture tube exposed to drugs were selected and a fraction of the culture used to plate on agar plates to observe the reduction of CFU counts as compared to untreated control. The rest of the culture samples were allowed to grow without any drug for additional 24 hours to observe the growth of S. aureus strains. One set of culture tubes without drug was used as the positive control.

MSSA = experiment: In vitro assay of emergence of resistance, MSSA, 8 days; format: cell-based, S. aureus; conditions: 6.25 μg (twice MBC) in one ml Mueller Hinton broth, 37° C., through Day 8
Description: as §1
The assays above were also performed using MSSA strains and Compounds I and IV.

[1] = Single ascending intravenous dose tolerability (MTD) in mice; format: in vivo; conditions: 10 mg/kg single intravenous bolus dose
Description: Single ascending intravenous (IV) dose study was performed to determine tolerability of the drug in mice.
Initially, Compound I-HCl and Compound IV-HCl were administered with a 10 mg/kg intravenous bolus dose using a 10 mL/kg dose volume (0.2 mL) and observed the effects before proceeding to the next higher dose. […] However, higher concentration (>15 mg/kg) had shown adverse effect and death in mice within 30 mins of administration of the drug.

S. aureus MSSA strains = experiment: Bioscreen-C dose response growth curve of MSSA over 24 hours; format: cell-based, Staphylococcus aureus; conditions: HCl salts, doses from 100 μg downwards, 10 mM sodium bicarbonate buffer pH-7.4, OD 420-580 nm
Description: (§2) Bioscreen-C instrument was used to detect the MIC and MBC of PNA-CPP derivatives against S. aureus MSSA strains. Different concentrations of PNA-CPP derivatives were prepared in 10 mM of sodium bicarbonate buffer pH-7.4 and added to ˜5.0 Log 10 CFUs in a Honey comb Bioscreen-C plate.
Compound I-V were assayed against MSSA. FIG. 12-16 show a dose response growth curve of MSSA in presence of increasing concentrations of Compound I-HCl (FIG. 12), Compound II-HCl (FIG. 13), Compound III-HCl (FIG. 14), Compound IV-HCl (FIG. 15), and Compound V-HCl (FIG. 16), determined in a Bioscreen-C spectrophotometer.

[2] = test system: MSSA clinical isolates and ATCC strains; experiment: MIC and MBC against MSSA clinical isolates and ATCC strains; format: cell-based, Staphylococcus aureus; set-up: MIC: unit not given here
Description: as §2
After the growth curve assays, the number of colony forming units (CFU) were counted to determine the MIC and MBC of each PNA-CPP derivative against MSSA.
(§3) Minimum inhibitory concentration (MIC) analyses were performed as described in Clinical and Laboratory Standards Institute, Methods for Dilution Antimicrobial Susceptibility Tests for Bacteria that Grow Aerobically, 7th ed.; Approved Standard M7-A7; CLSI: Wayne, Pa., USA, 2006; volume 26, No. 2. Vancomycin and Oxacillin were used as controls. MIC was determined as the lowest concentration of agent that inhibits bacterial growth detected at A420-580 nm.

[3] = test system: MRSA clinical isolates and ATCC strains; experiment: MIC and MBC against MRSA clinical isolates and ATCC strains; format: cell-based, Staphylococcus aureus; set-up: unit not given here
Description: (§4) Bioscreen-C instrument was used to detect the MIC and MBC of PNA-CPP derivatives against S. aureus MRSA strains. Different concentration of PNA-CPP derivatives were prepared in 10 mM of sodium bicarbonate buffer pH-7.4 and added to ˜5.0 Log 10 CFUs in a Honey comb Bioscreen-C plate.
After the growth curve assays, the number of colony forming units (CFU) were counted to determine the MIC and MBC of each PNA-CPP derivative against MRSA.
as §3, with “Vancomycin and Oxacillin were used as controls.” left out

[4] = test system: S. aureus (ATCC BAA-1556); experiment: Murine thigh infection model; format: in vivo; conditions: neutropenic CD-1 mice; 25 mg/kg, 0.2 ml SC, +1 hr; 24 hrs
Description: Female 5-6 week old CD-1 (18-22 gm) were used in this study. Mice were quarantined for 48 hours before use and housed in groups of 5 with free access to food and water during the study.
The animals were made neutropenic by administration of cyclophosphamide on Days −4 and −1. On Days −4 150 mg/kg of cyclohsphamide administered by intraperitoneal route and 100 mg/kg was administered on Days −1. Days listed are referenced from the date of infection (study day-Day 0).
On Day 0, animals were inoculated intramuscularly (0.1 ml/thigh) with ˜1×10^5 CFU/mouse of S. aureus (ATCC BAA-1556) into right thigh. […] Group-3 of mice were administered with vancomycin at 25 mg/kg via subcutaneous route. Group-4 of mice administered with buffer and group-5 used as the inoculation control.
Mice were euthanized by CO2 inhalation and thighs were removed, and placed in 2 ml of sterile PBS, homogenized, serially diluted and plated to determine the CFU counts. Plates were incubated 18-24 hours and CFUs were counted.
Colony were counted and the number of colonies is converted to CFU/thigh by multiplying the number of colonies by the volume of the thigh homogenate spotted and the dilution at which the colonies were counted (5-50 colonies/spot). All count data were transformed into logo CFU/thigh for calculation of means and standard deviations.

S. aureus MRSA strains = experiment: Bioscreen-C dose response growth curve of MRSA over 24 hours; format: cell-based, Staphylococcus aureus; conditions: HCl salts, doses from 100 μg downwards, 10 mM sodium bicarbonate buffer pH-7.4, OD 420-580 nm
Description: as §4
Compound I-V were assayed against MRSA. FIG. 6-10 show a dose response growth curve of MRSA in presence of increasing concentrations of Compound I-HCl (FIG. 6), Compound II-HCl (FIG. 7), Compound III-HCl (FIG. 8), Compound IV-HCl (FIG. 9), and Compound V-HCl (FIG. 10), determined in a Bioscreen-C spectrophotometer.

[5] = MSSA table, isolate MRSA#16 [sic]
[6] = MSSA table, isolate MRSA#25 [sic]
[7] = MSSA table, isolate MRSA#27 [sic]
[8] = MSSA table, isolate MRSA#34 [sic]
[9] = MSSA table, isolate MRSA#38 [sic]
[10] = MSSA table, isolate MRSA#57 [sic]
[11] = MSSA table, isolate MRSA#60 [sic]
[12] = MSSA table, isolate printed MRSA#49
[13] = MSSA table, isolate printed MRSA#61

## Compound IV: PNA-CPP conjugate: PNA SEQ ID NO: 51, AEEA linker, homo-arginine CPP BXhRXhRhRXhRhRXhRhRXhR; FIG. 4 (CGTCATACGCGGTCC; all peptide nucleic acid (PNA); homo-arginine cell-penetrating peptide attached via AEEA linker, further chemistry not fully specified)
MRSA
  MRSA CFU counts and emergence of resistant strains: reduced MRSA CFUs without emergence of resistant strains
MSSA
  MSSA CFU counts and emergence of resistant strains: reduced MSSA CFUs without emergence of resistant strains
[1]
  tolerability in mice: well tolerated
S. aureus MSSA strains
  lowest dose at which no MSSA growth was observed (growth curve): 6.25 µg

## Compound V: PNA-CPP conjugate: PNA SEQ ID NO: 51, AEEA linker, D-arginine CPP BXdRXdRdRXdRdRXdRdRXdR; FIG. 5 (CGTCATACGCGGTCC; all peptide nucleic acid (PNA); PNA conjugated to D-arginine cell-penetrating peptide via AEEA linker, end not given here, further chemistry not fully specified)
S. aureus MSSA strains
  lowest dose at which no MSSA growth was observed (growth curve): 25 µg

## Cc1onc(-c2ccccc2)c1C(=O)N[C@@H]1C(=O)N2[C@@H]1SC(C)(C)[C@@H]2C(=O)O [Oxacillin, reference compound]
[2]; [5]
  MIC: 2 ∞g
[2]; [6]
  MIC: 2 ∞g
[2]; [7]
  MIC: 2 ∞g
[2]; [8]
  MIC: 2 ∞g
[2]; [9]
  MIC: 2 ∞g
[2]; MSSA table, isolate MRSA#55
  MIC: 2 ∞g
[2]; [10]
  MIC: 4 ∞g
[2]; [11]
  MIC: 2 ∞g
[2]; [12]
  MIC: 2 ∞g
[2]; [13]
  MIC: 2 ∞g
[2]; strain BAA 1721
  MIC: <2 ∞g

## Compound II: PNA-CPP conjugate: PNA SEQ ID NO: 51, AEA linker, CPP BXRXRRXRRXRRXR; FIG. 2 (CGTCATACGCGGTCC; all peptide nucleic acid (PNA); PNA conjugated to cell-penetrating peptide BXRXRRXRRXRRXR via AEA linker, end not given here)
[2]; [5]
  MBC: 3.25 ∞g
  MIC: 1.56 ∞g
[2]; [6]
  MBC: 3.25/3.25 ∞g
  MIC: 3.25/3.25 ∞g
[2]; [7]
  MBC: 1.56 ∞g
  MIC: 0.78 ∞g
[2]; [8]
  MBC: 3.25/3.25 ∞g
  MIC: 3.25/3.25 ∞g
[2]; [9]
  MBC: 3.25/3.25 ∞g
  MIC: 3.25/3.25 ∞g
[2]; MSSA table, isolate MRSA#55
  MBC: 3.25/3.25 ∞g
  MIC: 3.25/3.25 ∞g
[2]; [10]
  MBC: 3.25 ∞g
  MIC: 1.56 ∞g
[2]; [11]
  MBC: 1.56 ∞g
  MIC: 0.78 ∞g
[2]; [12]
  MBC: 3.25/3.25 ∞g
  MIC: 3.25/3.25 ∞g
[2]; [13]
  MBC: 1.56 ∞g
  MIC: 0.78 ∞g
[2]; strain BAA 1721
  MBC: 1.56 ∞g
  MIC: 0.78 ∞g
[3]; isolate MRSA#1
  MBC: 3.25
  MIC: 1.56
[3]; isolate MRSA#3
  MBC: 3.25
  MIC: 1.56
[3]; isolate MRSA#6
  MBC: 3.25
  MIC: 1.56
[3]; isolate MRSA#15
  MBC: 3.25
  MIC: 1.56
[3]; isolate MRSA#28
  MBC: 3.25
  MIC: 1.56
[3]; isolate MRSA#31
  MBC: 3.25
  MIC: 1.56
[3]; isolate MRSA#37
  MBC: 1.56
  MIC: 0.78
[3]; isolate MRSA#39
  MBC: 3.25
  MIC: 1.56
[3]; isolate MRSA#42
  MBC: 1.56
  MIC: 0.78
[3]; isolate MRSA#43
  MBC: 1.56
  MIC: 0.78
[3]; strain USA 300
  MBC: 1.56
  MIC: 0.78
S. aureus MSSA strains
  lowest dose at which no MSSA growth was observed (growth curve): 6.25 µg

## CN[C@H](CC(C)C)C(=O)N[C@H]1C(=O)N[C@@H](CC(N)=O)C(=O)N[C@H]2C(=O)N[C@H]3C(=O)N[C@H](C(=O)N[C@H](C(=O)O)c4cc(O)cc(O)c4-c4cc3ccc4O)[C@H](O)c3ccc(c(Cl)c3)Oc3cc2cc(c3O[C@@H]2O[C@H](CO)[C@@H](O)[C@H](O)[C@H]2O[C@H]2C[C@](C)(N)[C@H](O)[C@H](C)O2)Oc2ccc(cc2Cl)[C@H]1O [Vancomycin, reference compound]
[2]; [5]
  MIC: 5 ∞g
[2]; [6]
  MIC: 10 ∞g
[2]; [7]
  MIC: 10 ∞g
[2]; [8]
  MIC: 5 ∞g
[2]; [9]
  MIC: 10 ∞g
[2]; MSSA table, isolate MRSA#55
  MIC: 10 ∞g
[2]; [10]
  MIC: 20 ∞g
[2]; [11]
  MIC: 10 ∞g
[2]; [12]
  MIC: 10 ∞g
[2]; [13]
  MIC: 5 ∞g
[2]; strain BAA 1721
  MIC: 10 ∞g
[4]
  Mean Log 10 CFU/Thigh: 4.39 Log 10 CFU/Thigh
  Mean Log 10 Change vs. 1 hr: −1.23 Log 10
  Mean Log 10 Change vs. 24 hr (vehicle): −4.14 Log 10

## Compound III: PNA-CPP conjugate: PNA SEQ ID NO: 51, Glycine-Glycine linker, CPP BXRXRRXRRXRRXR; FIG. 3 (CGTCATACGCGGTCC; all peptide nucleic acid (PNA); PNA conjugated to cell-penetrating peptide via glycine-glycine linker, end not given here, further chemistry not fully specified)
S. aureus MRSA strains
  lowest dose at which no MRSA growth was observed (growth curve): 12.5 µg
S. aureus MSSA strains
  lowest dose at which no MSSA growth was observed (growth curve): 25 µg
